biological target: Vanilloid receptor (Rattus norvegicus, UniProt Q9ERZ8+Q9WUD2+O35433); assay: Inhibition of [Ca2+] uptake in dorsal root ganglion (DRG) neurons from neonatal Sprague-Dawley rat; type: functional, tissue-based

IC50 [nM] | Structure (SMILES)
590 | Oc1cc2c(cc1O)CN(C(=S)NCCc1ccc(Cl)cc1)CCC2 [CAPSAZEPINE]
37 | CC(C)(C)c1ccc(CNC(=S)NCc2ccc(NS(C)(=O)=O)c(F)c2)cc1
> 30000 | CC(C)(C)c1ccc(C/N=C(\S)NCc2cccc(F)c2)cc1
